# How the values were obtained:
# RARβ = target: T1, RARβ (Homo sapiens, UniProt P10826); experiment: ligand binding assay, RARβ; conditions: second entry of cell, read-out: RAR Bind. Ki (nM) β
# T1 sequence (P10826 1-455): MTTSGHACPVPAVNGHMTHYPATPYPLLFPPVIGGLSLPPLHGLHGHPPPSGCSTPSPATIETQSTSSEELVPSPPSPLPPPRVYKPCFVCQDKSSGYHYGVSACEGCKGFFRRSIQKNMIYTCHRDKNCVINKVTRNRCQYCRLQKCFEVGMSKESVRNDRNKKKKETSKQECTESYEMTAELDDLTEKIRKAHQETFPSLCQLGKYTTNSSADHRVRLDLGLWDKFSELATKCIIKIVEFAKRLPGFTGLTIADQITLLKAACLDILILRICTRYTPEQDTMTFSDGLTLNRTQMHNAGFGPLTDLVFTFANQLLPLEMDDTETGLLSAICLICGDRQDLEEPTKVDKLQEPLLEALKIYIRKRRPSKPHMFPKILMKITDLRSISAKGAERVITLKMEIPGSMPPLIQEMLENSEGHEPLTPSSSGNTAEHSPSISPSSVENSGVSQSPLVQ
# Description: (§1) A holoreceptor transactivation assay and a ligand binding assay which measure the antagonist/agonist like activity of the compounds of the invention, or their ability to bind to the several retinoid receptor subtypes, respectively, are described in published PCT Application No. WO WO93/11755 (particularly on pages 30-33 and 37-41) published on Jun. 24, 1993, the specification of which is also incorporated herein by reference. A detailed experimental procedure for holoreceptor transactivations has been described by Heyman et al. Cell 68, 397-406, (1992); Allegretto et al. J. Biol. Chem. 268, 26625-26633, and Mangelsdorf et al. The Retinoids: Biology, Chemistry and Medicine, pp 319-349, Raven Press Ltd., New York, which are expressly incorporated herein by reference. The results obtained in this assay are expressed in EC50 numbers, as they are also in the chimeric receptor transactivation assay. The results of ligand binding assay are expressed in Kd numbers. (See Cheng et al. Biochemical Pharmacology Vol. 22 pp 3099-3108, expressly incorporated herein by reference.)
# RXRα [1] = target: T2, RXRα (Homo sapiens, UniProt P19793); experiment: receptor transactivation assay, RXRα; assay type: cell-based; conditions: first entry of cell, read-out: RXR Trans. EC50 (nM) α
# T2 construct: the only RXRα plasmid printed
# T2 sequence (P19793 227-462 limits assumed): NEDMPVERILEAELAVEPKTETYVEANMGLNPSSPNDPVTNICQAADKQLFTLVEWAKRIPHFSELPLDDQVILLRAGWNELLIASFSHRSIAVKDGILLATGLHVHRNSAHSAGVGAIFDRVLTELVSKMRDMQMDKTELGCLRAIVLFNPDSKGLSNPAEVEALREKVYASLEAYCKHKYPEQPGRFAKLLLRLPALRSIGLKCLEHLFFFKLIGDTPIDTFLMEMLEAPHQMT
# Description: as §1
# RXRα [2] = target: T3, RXRα (Homo sapiens, UniProt P19793); experiment: ligand binding assay, RXRα; conditions: last entry of cell, read-out: RXR Bind Ki (nM) α
# T3 sequence (P19793 1-462): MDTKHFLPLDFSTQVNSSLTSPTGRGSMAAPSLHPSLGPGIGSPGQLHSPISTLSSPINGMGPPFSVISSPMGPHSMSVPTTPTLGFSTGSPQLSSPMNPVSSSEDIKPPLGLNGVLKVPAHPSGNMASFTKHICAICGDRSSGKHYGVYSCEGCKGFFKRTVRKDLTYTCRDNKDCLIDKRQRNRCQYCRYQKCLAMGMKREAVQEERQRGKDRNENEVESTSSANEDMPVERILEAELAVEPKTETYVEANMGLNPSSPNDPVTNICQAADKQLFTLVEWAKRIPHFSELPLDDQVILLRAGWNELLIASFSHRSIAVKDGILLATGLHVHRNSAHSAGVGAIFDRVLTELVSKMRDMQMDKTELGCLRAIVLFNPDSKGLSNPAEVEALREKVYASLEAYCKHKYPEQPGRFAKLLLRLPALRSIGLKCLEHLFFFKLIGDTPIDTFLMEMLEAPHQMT
# Description: as §1
# RXRβ [3] = target: T4, RXRβ (UniProt P28704); experiment: ligand binding assay, RXRβ; parameters: other: RXRβ; last entry of cell; conditions: last entry of cell, read-out: RXR Bind Ki (nM) β
# T4 sequence (P28704 1-520): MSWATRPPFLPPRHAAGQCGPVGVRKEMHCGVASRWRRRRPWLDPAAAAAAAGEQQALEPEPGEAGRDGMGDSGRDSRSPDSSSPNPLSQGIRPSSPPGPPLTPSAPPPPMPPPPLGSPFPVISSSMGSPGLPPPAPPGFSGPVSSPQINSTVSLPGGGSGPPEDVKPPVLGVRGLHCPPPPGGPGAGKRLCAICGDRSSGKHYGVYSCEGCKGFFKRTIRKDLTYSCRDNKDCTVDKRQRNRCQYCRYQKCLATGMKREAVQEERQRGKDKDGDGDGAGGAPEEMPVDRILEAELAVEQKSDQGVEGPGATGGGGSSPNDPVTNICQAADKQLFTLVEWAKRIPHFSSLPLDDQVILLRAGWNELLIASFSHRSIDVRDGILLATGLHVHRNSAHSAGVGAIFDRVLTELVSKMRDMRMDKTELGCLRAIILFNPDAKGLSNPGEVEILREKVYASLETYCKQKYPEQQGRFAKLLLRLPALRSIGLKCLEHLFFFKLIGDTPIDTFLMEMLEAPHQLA
# Description: as §1
# RXRγ = target: T5, RXRγ (UniProt P28705); experiment: ligand binding assay, RXRγ; parameters: other: RXRγ; last entry of cell; conditions: last entry of cell, read-out: RXR Bind Ki (nM) γ
# T5 sequence (P28705 1-463): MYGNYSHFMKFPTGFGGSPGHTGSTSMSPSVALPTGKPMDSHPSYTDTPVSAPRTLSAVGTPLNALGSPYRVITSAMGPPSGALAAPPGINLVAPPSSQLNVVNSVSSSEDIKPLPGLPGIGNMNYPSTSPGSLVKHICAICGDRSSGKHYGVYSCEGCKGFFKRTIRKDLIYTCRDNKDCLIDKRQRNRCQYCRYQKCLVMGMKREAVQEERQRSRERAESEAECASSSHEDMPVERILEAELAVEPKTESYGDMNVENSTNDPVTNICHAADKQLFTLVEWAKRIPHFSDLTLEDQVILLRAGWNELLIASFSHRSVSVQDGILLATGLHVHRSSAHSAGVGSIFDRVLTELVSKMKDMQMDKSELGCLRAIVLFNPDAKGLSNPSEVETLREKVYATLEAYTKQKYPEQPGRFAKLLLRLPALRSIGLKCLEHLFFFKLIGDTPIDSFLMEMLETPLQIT
# Description: as §1
# RXRβ [4] = target: T4, RXRβ; experiment: receptor transactivation assay, RXRβ; assay type: cell-based; parameters: RXR Trans; other: RXRβ; first entry of cell; conditions: for EC50: first entry of cell, read-out: RXR Trans. EC50 (nM) β; for RXR Trans. β, number in parentheses after EC50: parenthesised number, not defined in the patent
# Description: as §1
Structure (SMILES),Ki (RARβ) [nM],EC50 (RXRα [1]) [nM],Ki (RXRα [2]) [nM],Ki (RXRβ [3]) [nM],Ki (RXRγ) [nM],EC50 (RXRβ [4]) [nM],"RXR Trans. β, number in parentheses after EC50 (RXRβ [4])"
"CC(/C=C/[C@@H]1C[C@]1(C)c1ccc2c(c1)C(C)(C)CO2)=C\C(=O)O [Compound 2, (6S,7S)-7-[5-(3,3-Dimethyl-2,3-dihydro-benzofuranyl)]-6.7-methano-3-methyl-octa-2E,4E-dienoic Acid]",> 10000,1.1,7.8,21.1,35,9.8,106
"CC(/C=C/[C@@H]1C[C@]1(C)c1cc(C)c2c(c1)C(C)(C)CO2)=C\C(=O)O [Compound 4, (6S,7S)-7-[5-(3,3,7-Trimethyl-2,3-dihydro-benzofuranyl)]-6,7-methano-3-methyl-octa-2E,4E-dienoic acid]",> 10000,2.9,6.3,74,9.9,21,108
CCc1cc([C@@]2(C)C[C@H]2/C=C/C(C)=C/C(=O)O)cc2c1OCC2(C)C [Compound 6],> 30000,0.3,0.72,1.8,3.2,2.8,75
"CC(/C=C/[C@@H]1C[C@]1(C)c1cc(C(C)C)c2c(c1)C(C)(C)CO2)=C\C(=O)O [Compound 8, (6S,7S)-7-[5-(3,3-Dimethyl-7-iso-propyl-2,3-dihydro-benzofuranyl)]-6,7-methano-3-methyl-octa-2E,4E-dienoic Acid]",41000,0.159,1.7,10.6,8.6,0.66,110
"CC(/C=C/[C@@H]1C[C@]1(C)c1cc(C(C)(C)C)c2c(c1)C(C)(C)CO2)=C\C(=O)O [Compound 10, (6S,7S)-7-[5-(3,3-Dimethyl-7-t-butyl-2,3-dihydro-benzofuranyl)]-6,7-methano-3-methyl-octa-2E,4E-dienoic acid]",19000,0.55,0.8,7.1,1.3,12,90
"CC(/C=C/[C@@H]1C[C@]1(C)c1cc(CC(C)(C)C)c2c(c1)C(C)(C)CO2)=C\C(=O)O [Compound 12, 5-{(1S,2S) 2-[7-(2,2-Dimethyl-propyl)-3,3-dimethyl-2,3-dihydro-benzofuran-5-yl]-2-methyl-cyclopropyl}-3-methyl-penta-2E,4E-dienoic Acid]",9510,0.246,0.2,1.5,0.7,1.67,93
"CC(/C=C/[C@@H]1C[C@]1(C)c1cc(Cc2ccccc2)c2c(c1)C(C)(C)CO2)=C\C(=O)O [Compound 14, (6S,7S)-7-[5-(7-Benzyl-3,3-dimethyl-2,3-dihydro-benzofuranyl)]-6,7-methano-3-methyl-octa-2E,4E-dienoic Acid]",4770,0.086,0.8,1.1,9.2,0.515,114
"CC(/C=C/[C@@H]1C[C@]1(C)c1cc(CC2CCCCC2)c2c(c1)C(C)(C)CO2)=C\C(=O)O [Compound 16, (6S,7S)-7-[5-(7-Cyclohexylmethyl-3,3-dimethyl-2,3-dihydro-benzofuranyl)]-6,7-methano-3-methyl-octa-2E,4E-dienoic Acid]",9290,0.215,0.3,1.9,1.9,1.15,85
"CCCCCCc1cc([C@@]2(C)C[C@H]2/C=C/C(C)=C/C(=O)O)cc2c1OCC2(C)C [Compound 18, (6S,7S)-7-[5-(3,3-Dimethyl-7-hexyl-2,3-dihydro-benzofuranyl)]-6,7-methano-3-methyl-octa-2E,4E-dienoic acid]",15000,0.25,1.9,5.1,2,2.8,96
"CC(/C=C/[C@@H]1C[C@]1(C)c1cc(Br)c2c(c1)C(C)(C)CO2)=C\C(=O)O [Compound 20, (6S,7S)-7-[5-(7-Bromo-3,3-dimethyl-2,3-dihydro-benzofuranyl)]-6,7-methano-3-methyl-octa-2E,4E-dienoic Acid]",> 10000,2.4,7.1,21.5,40,12,108
"CC(/C=C/[C@@H]1C[C@]1(C)c1cc(-c2ccccc2)c2c(c1)C(C)(C)CO2)=C\C(=O)O [Compound 22, 6S,7S)-7-[5-(3,3-Dimethyl-7-phenyl-2,3-dihydro-benzofuranyl)1-6,7-methano-3-methyl-octa-2E,4E-dienoic acid]",> 10000,8.3,2.3,9.6,6.2,28.4,75
CCCCCCCc1ccccc1-c1cc([C@@]2(C)C[C@H]2/C=C/C(C)=C/C(=O)O)cc2c1OCC2(C)C [Compound 28],3740,594,35,111,,> 1000,

# — patent US6720423B2, “Dihydrobenzofuran and dihydrobenzothiophene 2,4-pentadienoic acid derivatives having selective activity for retinoid X (RXR) receptors” (Allergan, Inc., priority 2002, dated 2004)
